The target of one experiment is T1, mouse EP3α (Mus musculus, UniProt P30557).
T1 construct: expressed in transfected cells; host or cells: CHO cells
T1 sequence (P30557 1-365): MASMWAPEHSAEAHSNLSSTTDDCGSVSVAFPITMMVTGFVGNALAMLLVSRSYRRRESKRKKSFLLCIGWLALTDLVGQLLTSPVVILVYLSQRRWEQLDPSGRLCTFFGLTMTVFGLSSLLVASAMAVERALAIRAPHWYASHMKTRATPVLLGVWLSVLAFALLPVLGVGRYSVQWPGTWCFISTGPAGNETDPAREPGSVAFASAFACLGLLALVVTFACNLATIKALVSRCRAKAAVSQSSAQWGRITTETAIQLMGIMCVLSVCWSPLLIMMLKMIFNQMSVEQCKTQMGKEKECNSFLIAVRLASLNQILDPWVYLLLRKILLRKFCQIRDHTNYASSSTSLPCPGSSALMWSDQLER
In words: Binding assay using expression cell of the prostanoid receptor subtype (EP3α), competition of specific 3H-PGE2 binding. Conditions: membrane fraction of EP3α expressing CHO cells; 2.5 nM 3H-PGE2; pH 6.0; 1 hour at room temperature; read-out: Dissociation constant for EP3α Ki. As for the experimental part: (§1) (I) Binding assay using expression cell of the prostanoid receptor subtype
(§2) The preparation of membrane fraction was carried out according to the method of Sugimoto et al (J. Biol. Chem. 267, 6463-6466 (1992)) using the prostanoid receptor subtypes (mouse EP3α, EP4) expressing CHO cells.
(§3) The standard assay mixture containing membrane fraction (0.5 mg/ml) and ^3 H-PGE2 in a final volume of 200 μl was incubated for 1 hour at room temperature. The reaction was terminated by the addition of 3 ml of ice-cold buffer. The mixture was rapidly filtered through a GF/B glass filter. The radioactivity associated with the filter was measured by liquid scintillation counting.
(§4) Kd and Bmax value were determined from Scatchard plots (Ann. N. Y. Sci., 51, 660 (1949)). Non-specific binding was calculated as the bound in the presence of an excess (2.5 μM) of unlabeled PGE2.
(§5) In the experiment for competition of specific ^3 H-PGE2 binding by the compounds of the present invention, 2.5 nM of ^3 H-PGE2 and various concentration of the compounds of the present invention were added. The following buffer was used in all reactions. Buffer: 10 mM potassium phosphate (pH 6.0), 1 mM EDTA, 10 mM MgCl2, 0.1M NaCl. The dissociation constant (Ki) of each compound was calculated by the following equation.

In the next experiment the target is T2, mouse EP4 (Mus musculus, UniProt P32240).
T2 construct: expressed in transfected cells; host or cells: CHO cells
T2 sequence (P32240 whole entry): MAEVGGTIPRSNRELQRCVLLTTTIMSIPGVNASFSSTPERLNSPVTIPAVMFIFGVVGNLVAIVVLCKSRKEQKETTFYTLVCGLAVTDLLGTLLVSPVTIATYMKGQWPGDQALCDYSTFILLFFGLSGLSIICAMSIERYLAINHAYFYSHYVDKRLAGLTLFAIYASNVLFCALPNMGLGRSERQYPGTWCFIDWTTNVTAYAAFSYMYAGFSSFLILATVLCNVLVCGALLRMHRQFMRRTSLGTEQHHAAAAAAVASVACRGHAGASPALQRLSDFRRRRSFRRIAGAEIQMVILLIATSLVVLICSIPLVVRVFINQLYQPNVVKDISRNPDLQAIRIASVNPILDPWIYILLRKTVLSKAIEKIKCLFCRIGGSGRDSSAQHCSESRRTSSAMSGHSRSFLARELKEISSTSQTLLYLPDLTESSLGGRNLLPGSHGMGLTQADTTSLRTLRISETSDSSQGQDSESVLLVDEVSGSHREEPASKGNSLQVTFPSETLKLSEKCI
Nature of the experiment: Binding assay using expression cell of the prostanoid receptor subtype (EP4), competition of specific 3H-PGE2 binding. Conditions: membrane fraction of EP4 expressing CHO cells; 2.5 nM 3H-PGE2; pH 6.0; 1 hour at room temperature; read-out: Dissociation constant for EP4 Ki. As for the experimental part:
as §1, §2, §3, §4, §5

In the case of `CCCC[C@H](C)[C@H](O)/C=C/[C@@H]1C(SCCCSCC(=O)O)C(=O)C[C@H]1O` (stereo partly drawn) [Example 2(o), 11α,15α-dihydroxy-9-oxo-16β-methyl-3,7-dithiaprost-13E-enoic acid], the Ki on mouse EP3α was determined as 25 nM; at mouse EP4, 0.2 nM.
Consider `CCCC[C@H](C)C[C@H](O)/C=C/[C@H]1[C@H](O)CC(=O)[C@@H]1SCCCSCC(=O)O` [Example 2(b), 11α,15α-dihydroxy-9-oxo-17α,20-dimethyl-3,7-dithiaprost-13E-enoic acid], for which, on mouse EP4, the Ki was 0.6 nM.
Turning to `CCCCC(C)CC(O)/C=C/C1C(O)CC(=O)C1SCCCSCC(=O)O` (stereo not drawn) [Example 2(a), 11α,15α-dihydroxy-9-oxo-17β,20-dimethyl-3,7-dithiaprost-13E-enoic acid], the figures for the Ki on mouse EP3α and at mouse EP4 were 10 nM and 0.8 nM, respectively.
On to `O=C(O)CSCCCSC1C(=O)CC(O)C1/C=C/C(O)CCc1ccccc1` (stereo not drawn) [Example 2(g), 11α,15α-dihydroxy-9-oxo-17-phenyl-18,19,20-trinor-3,7-dithiaprost-13E-enoic acid], for which the Ki at mouse EP4 came to 6 nM.
For `CC/C=C\CC(O)/C=C/C1C(O)CC(=O)C1SCCCSCC(=O)O` (stereo not drawn) [Example 2(e), 11α,15α-dihydroxy-9-oxo-3,7-dithiaprost-13E,17Z-dienoic acid], the Ki on mouse EP4 was 0.91 nM.
Still for that read-out and setting: the value for `CCCCC[C@H](O)CC[C@@H]1C(SCCCSCC(=O)O)C(=O)C[C@H]1O` (stereo partly drawn) [Example 2(d), 11α,15α-dihydroxy-9-oxo-3,7-dithiaprostanoic acid] was 1.6 nM; that for `O=C(O)CSCCCSC1C(=O)CC(O)C1/C=C/C(O)CC1CCCC1` (stereo not drawn) [Example 2(t), 11α,15α-dihydroxy-9-oxo-16-cyclopentyl-3,7-dithia-17,18,19,20-tetranorprost-13E-enoic acid] was 4.2 nM; that for `O=C(O)CSCCCSC1C(=O)CC(O)C1/C=C/C(O)CCCC1CC1` (stereo not drawn) [Example 2(q), 11α,15α-dihydroxy-9-oxo-19,20-methano-3,7-dithiaprost-13E-enoicacid] was 0.4 nM.
As to `O=C(O)CSCCCS[C@H]1C(=O)C[C@@H](O)[C@@H]1/C=C/[C@@H](O)C1CCCCC1` [Example 2(h), 11α,15α-dihydroxy-9-oxo-15-cyclohexyl-3,7-dithia-16,17,18,19,20-pentanorprost-13E-enoic acid], the Ki was 610 nM at mouse EP3α and 22 nM at mouse EP4.
Consider `CCCCC(C)(O)C/C=C/C1C(O)CC(=O)C1SCCCSCC(=O)O` (stereo not drawn) [Example 2(c), 11α,16β-dihydroxy-9-oxo-16α-methyl-3,7-dithiaprost-13E-enoic acid], for which the Ki at mouse EP4 was 5.6 nM.
Turning to `CCCCCC(O)/C=C/C1C(O)CC(=O)C1SCCCSCC(=O)O` (stereo not drawn) [Example 2, 11α,15α-dihydroxy-9-oxo-3,7-dithiaprost-13E-enoic acid], the Ki worked out at 1500 nM on mouse EP3α and 0.7 nM on mouse EP4.
In the case of `CCCCC(O)/C=C/C1C(O)CC(=O)C1SCCCSCC(=O)O` (stereo not drawn) [Example 2(m), 11α,15α-dihydroxy-9-oxo-3,7-dithia-20-norprost-13E-enoic acid], the inhibitory constant (Ki) at mouse EP3α was determined as 23 nM; at mouse EP4, 1.4 nM.
In the case of `O=C(O)CSCCCSC1C(=O)CC(O)C1/C=C/C(O)Cc1ccccc1` (stereo not drawn) [Example 2(f), 11α,15α-dihydroxy-9-oxo-16-phenyl-17,18,19,20-tetranor-3,7-dithiaprost-13E-enoic acid], the values for the Ki at mouse EP3α and on mouse EP4 were 130 nM and 7 nM, respectively.
The corresponding values for `CCCCC[C@](C)(O)/C=C/[C@H]1[C@H](O)CC(=O)[C@@H]1SCCCSCC(=O)O` [Example 2(k), 11α,15α-dihydroxy-9-oxo-15β-methyl-3,7-dithiaprost-13E-enoic acid] are 34 nM and 0.7 nM.

As usually defined, the Ki is the equilibrium dissociation constant of an inhibitor or competing ligand from its target.

These data come from patent publication US5892099A, “3,7-dithiaprostanoic acid derivative” (Ono Pharmaceutical Co., Ltd., priority 1997, dated 1999).
